Where two headings read alike, the source gives them in different places.
Assays:
Experiment in all cases: biochemical
Set-up in all cases: KINOMEscan active site-directed competition binding assay (DiscoveRx), 456 kinases, per cent of control at 300 nM
Conditions in all cases: read-out: Percent of Control (%)
[1] = target: T1, ABL1(F317L)-nonphosphorylated (Homo sapiens, UniProt P00519, F317L)
T1 construct: nonphosphorylated
Outline: (§1)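 At 300 nmol/L, compounds were assessed for kinase binding in an active site-directed competition format covering 456 kinases.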

[2] = target: FGFR3(G697C) (Homo sapiens, UniProt P22607, G697C)
Outline: as §1

[3] = target: RAF1 (Homo sapiens, UniProt P04049)
Outline: as §1

[4] = target: T2, LOK (Homo sapiens, UniProt O94804)
T2 construct: gene STK10
Outline: as §1

[5] = target: GSK3B (Homo sapiens, UniProt P49841)
Sequence of GSK3B (P49841 whole entry): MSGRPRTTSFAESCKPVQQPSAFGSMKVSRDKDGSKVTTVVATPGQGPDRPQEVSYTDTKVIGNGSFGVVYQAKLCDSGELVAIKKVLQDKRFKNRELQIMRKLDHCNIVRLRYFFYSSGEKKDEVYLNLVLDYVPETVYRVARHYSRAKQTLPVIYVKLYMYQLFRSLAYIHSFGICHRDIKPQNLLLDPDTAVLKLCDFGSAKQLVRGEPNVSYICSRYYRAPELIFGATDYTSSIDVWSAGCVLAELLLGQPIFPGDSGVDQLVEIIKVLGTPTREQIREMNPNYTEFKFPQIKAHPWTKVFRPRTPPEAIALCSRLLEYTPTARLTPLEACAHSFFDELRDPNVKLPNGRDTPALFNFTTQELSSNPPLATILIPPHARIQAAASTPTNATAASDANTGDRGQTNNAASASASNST
Outline: as §1

[6] = target: ROS1 (Homo sapiens, UniProt P08922)
Outline: as §1

[7] = target: CDK3 (Homo sapiens, UniProt Q00526)
Outline: as §1

[8] = target: T3, ABL1(Q252H)-nonphosphorylated (Homo sapiens, UniProt P00519, Q252H)
T3 construct: nonphosphorylated
Outline: as §1

[9] = target: T4, CDK11 (Homo sapiens, UniProt Q9BWU1)
T4 construct: gene CDK19
T4 sequence (Q9BWU1 whole entry): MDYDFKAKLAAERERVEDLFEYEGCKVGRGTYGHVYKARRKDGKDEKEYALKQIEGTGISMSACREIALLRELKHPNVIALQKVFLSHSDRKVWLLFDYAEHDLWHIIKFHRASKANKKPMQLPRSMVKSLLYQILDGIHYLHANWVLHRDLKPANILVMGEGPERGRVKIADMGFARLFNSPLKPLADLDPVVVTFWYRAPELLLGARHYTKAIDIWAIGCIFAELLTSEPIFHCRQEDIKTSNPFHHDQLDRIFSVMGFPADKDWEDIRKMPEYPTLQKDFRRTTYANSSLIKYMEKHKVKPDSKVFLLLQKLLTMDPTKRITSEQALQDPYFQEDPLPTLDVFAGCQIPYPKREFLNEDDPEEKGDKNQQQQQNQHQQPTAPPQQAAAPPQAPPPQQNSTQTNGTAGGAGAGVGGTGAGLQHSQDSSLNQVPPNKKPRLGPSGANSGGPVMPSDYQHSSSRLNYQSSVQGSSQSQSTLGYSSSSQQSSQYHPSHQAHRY
Outline: as §1

[10] = target: DAPK2 (Homo sapiens, UniProt Q9UIK4)
Sequence of DAPK2 (Q9UIK4 whole entry): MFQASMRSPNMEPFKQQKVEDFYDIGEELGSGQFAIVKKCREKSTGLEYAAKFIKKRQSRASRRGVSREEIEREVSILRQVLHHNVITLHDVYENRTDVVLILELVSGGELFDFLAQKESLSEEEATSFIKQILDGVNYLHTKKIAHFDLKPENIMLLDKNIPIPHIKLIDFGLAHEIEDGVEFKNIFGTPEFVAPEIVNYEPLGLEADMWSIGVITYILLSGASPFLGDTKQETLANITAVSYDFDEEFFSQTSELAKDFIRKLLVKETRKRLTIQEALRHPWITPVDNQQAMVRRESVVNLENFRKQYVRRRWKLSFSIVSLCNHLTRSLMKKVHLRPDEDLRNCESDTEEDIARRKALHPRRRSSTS
Outline: as §1

[11] = target: T5, LKB1 (Homo sapiens, UniProt Q15831)
T5 construct: gene STK11
T5 sequence (Q15831 whole entry): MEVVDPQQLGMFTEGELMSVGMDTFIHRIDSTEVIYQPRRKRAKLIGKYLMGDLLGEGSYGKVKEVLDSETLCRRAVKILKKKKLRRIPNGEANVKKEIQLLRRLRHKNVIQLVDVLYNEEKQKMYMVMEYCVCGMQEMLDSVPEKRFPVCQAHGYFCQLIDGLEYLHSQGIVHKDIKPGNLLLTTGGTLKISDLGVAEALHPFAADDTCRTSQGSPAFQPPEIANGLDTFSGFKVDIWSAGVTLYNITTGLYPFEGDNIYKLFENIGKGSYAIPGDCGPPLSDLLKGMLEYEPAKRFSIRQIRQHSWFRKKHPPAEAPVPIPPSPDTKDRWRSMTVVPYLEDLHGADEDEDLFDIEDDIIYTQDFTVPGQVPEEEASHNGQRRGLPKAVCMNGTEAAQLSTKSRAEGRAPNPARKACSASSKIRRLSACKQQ
Outline: as §1

[12] = target: T6, VEGFR2 (Homo sapiens, UniProt P35968)
T6 construct: gene KDR
Outline: as §1

[13] = target: MAP4K4 (Homo sapiens, UniProt O95819)
Outline: as §1

[14] = target: T7, p38-gamma (Homo sapiens, UniProt P53778)
T7 construct: gene MAPK12
T7 sequence (P53778 whole entry): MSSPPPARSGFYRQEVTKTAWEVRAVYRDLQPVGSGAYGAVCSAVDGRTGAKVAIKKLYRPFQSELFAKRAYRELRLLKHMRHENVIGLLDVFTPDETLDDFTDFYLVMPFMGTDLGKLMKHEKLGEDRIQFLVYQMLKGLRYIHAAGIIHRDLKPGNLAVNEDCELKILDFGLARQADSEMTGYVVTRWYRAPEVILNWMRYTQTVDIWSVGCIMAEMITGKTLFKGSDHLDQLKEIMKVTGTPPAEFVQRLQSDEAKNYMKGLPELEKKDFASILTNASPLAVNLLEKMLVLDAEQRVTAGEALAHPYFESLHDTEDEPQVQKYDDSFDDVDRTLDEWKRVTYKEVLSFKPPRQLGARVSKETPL
Outline: as §1

[15] = target: STK35 (Homo sapiens, UniProt Q8TDR2)
Outline: as §1

[16] = target: T8, PCTK3 (Homo sapiens, UniProt Q07002)
T8 construct: gene CDK18
T8 sequence (Q07002 whole entry): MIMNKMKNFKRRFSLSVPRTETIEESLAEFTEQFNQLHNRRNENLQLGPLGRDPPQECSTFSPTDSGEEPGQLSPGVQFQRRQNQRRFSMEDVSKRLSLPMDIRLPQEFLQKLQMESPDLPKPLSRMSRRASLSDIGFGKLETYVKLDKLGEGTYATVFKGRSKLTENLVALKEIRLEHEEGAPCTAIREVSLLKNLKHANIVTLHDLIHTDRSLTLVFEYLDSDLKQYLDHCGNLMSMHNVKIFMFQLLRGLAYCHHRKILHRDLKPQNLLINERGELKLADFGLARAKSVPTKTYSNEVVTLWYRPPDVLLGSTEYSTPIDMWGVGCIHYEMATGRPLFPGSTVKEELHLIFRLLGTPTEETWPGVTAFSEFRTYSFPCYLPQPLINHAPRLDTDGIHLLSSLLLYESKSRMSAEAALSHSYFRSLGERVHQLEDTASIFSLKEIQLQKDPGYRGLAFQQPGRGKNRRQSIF
Outline: as §1

[17] = target: MAPKAPK5 (Homo sapiens, UniProt Q8IW41)
Sequence of MAPKAPK5 (Q8IW41 whole entry): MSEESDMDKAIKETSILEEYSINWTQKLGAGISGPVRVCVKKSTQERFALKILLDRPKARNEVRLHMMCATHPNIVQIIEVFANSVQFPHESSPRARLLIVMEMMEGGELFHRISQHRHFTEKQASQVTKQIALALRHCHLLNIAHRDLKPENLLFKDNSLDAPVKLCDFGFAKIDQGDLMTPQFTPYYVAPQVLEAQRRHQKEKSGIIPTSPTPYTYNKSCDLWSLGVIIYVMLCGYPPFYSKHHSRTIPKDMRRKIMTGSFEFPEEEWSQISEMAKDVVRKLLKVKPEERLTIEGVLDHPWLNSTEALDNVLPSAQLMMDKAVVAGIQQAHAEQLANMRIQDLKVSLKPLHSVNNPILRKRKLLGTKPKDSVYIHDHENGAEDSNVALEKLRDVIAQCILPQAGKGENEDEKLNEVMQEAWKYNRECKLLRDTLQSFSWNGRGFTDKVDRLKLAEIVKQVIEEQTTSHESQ
Outline: as §1

[18] = target: CSNK2A1 (Homo sapiens, UniProt P68400)
Sequence of CSNK2A1 (P68400 whole entry): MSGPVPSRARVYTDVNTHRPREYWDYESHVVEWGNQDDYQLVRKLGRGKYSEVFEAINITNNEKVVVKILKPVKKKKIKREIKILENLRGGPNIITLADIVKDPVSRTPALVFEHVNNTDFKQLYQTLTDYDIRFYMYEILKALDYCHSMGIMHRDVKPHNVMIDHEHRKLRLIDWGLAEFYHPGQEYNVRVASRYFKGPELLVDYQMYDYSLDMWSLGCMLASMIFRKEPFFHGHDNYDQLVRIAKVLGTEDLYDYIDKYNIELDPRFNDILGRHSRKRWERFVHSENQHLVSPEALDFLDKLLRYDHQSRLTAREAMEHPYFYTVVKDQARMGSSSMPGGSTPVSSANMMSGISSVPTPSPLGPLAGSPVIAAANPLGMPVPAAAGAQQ
Outline: as §1

[19] = target: EPHA7 (Homo sapiens, UniProt Q15375)
Sequence of EPHA7 (Q15375 whole entry): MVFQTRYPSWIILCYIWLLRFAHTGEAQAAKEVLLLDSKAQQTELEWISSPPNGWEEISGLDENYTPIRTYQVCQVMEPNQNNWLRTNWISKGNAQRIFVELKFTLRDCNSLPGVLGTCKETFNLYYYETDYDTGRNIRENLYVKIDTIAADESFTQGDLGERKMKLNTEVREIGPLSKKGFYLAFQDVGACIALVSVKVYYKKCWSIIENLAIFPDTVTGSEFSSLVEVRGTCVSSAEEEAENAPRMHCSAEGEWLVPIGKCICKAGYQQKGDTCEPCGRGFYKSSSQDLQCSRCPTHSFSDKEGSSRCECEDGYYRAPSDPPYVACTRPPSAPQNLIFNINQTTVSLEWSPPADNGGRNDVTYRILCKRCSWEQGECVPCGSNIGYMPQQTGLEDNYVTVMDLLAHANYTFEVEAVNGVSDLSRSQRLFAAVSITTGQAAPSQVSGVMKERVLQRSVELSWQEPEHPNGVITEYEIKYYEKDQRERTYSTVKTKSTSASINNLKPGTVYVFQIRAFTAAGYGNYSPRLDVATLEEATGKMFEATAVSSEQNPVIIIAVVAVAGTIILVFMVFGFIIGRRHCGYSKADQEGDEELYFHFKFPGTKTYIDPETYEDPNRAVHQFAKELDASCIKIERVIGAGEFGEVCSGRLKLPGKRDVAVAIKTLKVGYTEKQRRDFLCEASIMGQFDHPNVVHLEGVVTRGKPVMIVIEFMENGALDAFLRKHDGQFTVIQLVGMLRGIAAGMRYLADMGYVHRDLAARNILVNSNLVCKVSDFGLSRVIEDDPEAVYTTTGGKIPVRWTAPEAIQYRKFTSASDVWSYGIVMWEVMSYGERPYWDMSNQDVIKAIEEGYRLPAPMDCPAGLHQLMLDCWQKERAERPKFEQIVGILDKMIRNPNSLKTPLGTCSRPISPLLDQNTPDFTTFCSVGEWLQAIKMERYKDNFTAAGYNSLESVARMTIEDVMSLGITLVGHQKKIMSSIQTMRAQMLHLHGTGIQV
Outline: as §1

[20] = target: FLT3(ITD) (Homo sapiens, UniProt P36888, ITD)
Sequence of FLT3(ITD) (P36888 564-993, change not shown): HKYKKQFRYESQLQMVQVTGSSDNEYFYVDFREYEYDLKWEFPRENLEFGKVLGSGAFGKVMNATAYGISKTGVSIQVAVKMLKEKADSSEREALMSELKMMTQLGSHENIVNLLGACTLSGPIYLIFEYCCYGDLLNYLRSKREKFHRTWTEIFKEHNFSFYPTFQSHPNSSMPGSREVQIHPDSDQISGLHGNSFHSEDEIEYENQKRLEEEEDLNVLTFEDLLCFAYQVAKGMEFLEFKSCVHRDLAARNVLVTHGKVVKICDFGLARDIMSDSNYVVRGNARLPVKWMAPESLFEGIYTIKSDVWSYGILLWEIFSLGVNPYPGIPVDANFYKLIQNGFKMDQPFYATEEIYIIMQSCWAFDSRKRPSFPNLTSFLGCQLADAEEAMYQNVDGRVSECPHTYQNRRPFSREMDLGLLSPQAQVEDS
Outline: as §1

[21] = target: PRKCD (Homo sapiens, UniProt Q05655)
Outline: as §1

[22] = target: MAP3K1 (Homo sapiens, UniProt Q13233)
Outline: as §1

Cc1ncccc1Oc1sc(C(N)=O)c2c1-c1c(cnn1C)CC2 [T-474, 1-methyl-8-((2-methylpyridin-3-yl)oxy)-4,5-dihydro-1H-thieno[3,4-g]indazole-6-carboxamide]
remaining binding at 0.3 µM [1]: 100% | remaining binding at 0.3 µM [2]: 59% | remaining binding at 0.3 µM [3]: 98% | remaining binding at 0.3 µM [4]: 100% | remaining binding at 0.3 µM [5]: 94% | remaining binding at 0.3 µM [6]: 100% | remaining binding at 0.3 µM [7]: 100% | remaining binding at 0.3 µM [8]: 100% | remaining binding at 0.3 µM [9]: 1.1% | remaining binding at 0.3 µM [10]: 100% | remaining binding at 0.3 µM [11]: 67% | remaining binding at 0.3 µM [12]: 100% | remaining binding at 0.3 µM [13]: 83% | remaining binding at 0.3 µM [14]: 100% | remaining binding at 0.3 µM [15]: 100% | remaining binding at 0.3 µM [16]: 100% | remaining binding at 0.3 µM [17]: 98% | remaining binding at 0.3 µM [18]: 61% | remaining binding at 0.3 µM [19]: 94% | remaining binding at 0.3 µM [20]: 100% | remaining binding at 0.3 µM [21]: 96% | remaining binding at 0.3 µM [22]: 84%

O=C(/C=C/c1cnccc1-c1ccc(F)cc1)Nc1ccc(CCc2nnco2)cc1 [T-418, (2E)-3-(4-(4-fluorophenyl)pyridin-3-yl)-N-(4-(2-(1,3,4-oxadiazol-2-yl)ethyl)phenyl)acrylamide]
remaining binding at 0.3 µM ([1]; sheet T-418): 100% | remaining binding at 0.3 µM ([2]; sheet T-418): 66% | remaining binding at 0.3 µM ([3]; sheet T-418): 80% | remaining binding at 0.3 µM ([4]; sheet T-418): 93% | remaining binding at 0.3 µM ([5]; sheet T-418): 98% | remaining binding at 0.3 µM ([6]; sheet T-418): 100% | remaining binding at 0.3 µM ([7]; sheet T-418): 95% | remaining binding at 0.3 µM ([8]; sheet T-418): 83% | remaining binding at 0.3 µM ([9]; sheet T-418): 6.4% | remaining binding at 0.3 µM ([10]; sheet T-418): 87% | remaining binding at 0.3 µM ([11]; sheet T-418): 53% | remaining binding at 0.3 µM ([12]; sheet T-418): 100% | remaining binding at 0.3 µM ([13]; sheet T-418): 89% | remaining binding at 0.3 µM ([14]; sheet T-418): 86% | remaining binding at 0.3 µM ([15]; sheet T-418): 98% | remaining binding at 0.3 µM ([16]; sheet T-418): 100% | remaining binding at 0.3 µM ([17]; sheet T-418): 92% | remaining binding at 0.3 µM ([18]; sheet T-418): 84% | remaining binding at 0.3 µM ([19]; sheet T-418): 96% | remaining binding at 0.3 µM ([20]; sheet T-418): 100% | remaining binding at 0.3 µM ([21]; sheet T-418): 100% | remaining binding at 0.3 µM ([22]; sheet T-418): 100%

Source: publication PMC5862592, “CDK8/19 inhibition induces premature G1/S transition and ATR-dependent cell death in prostate cancer cells” (Oncotarget, 2018)
